Results taken from patent publication US7470724B2, “Phosphonate compounds having immuno-modulatory activity” (Gilead Sciences, Inc., priority 2003, dated 2008).

Experiment: Pro-drug cleavage by human PBMC extracts
Type: in vitro ADME
Settings: cleavage rate per μg protein; 30 μM substrate, pH 6.5, 37° C., 10-120 minutes; disappearance of pro-drug by HPLC at 260 nm
Experimental: Fresh human PBMCs were obtained from patients undergoing leukophoresis; cells were shipped in plasma and processed within 26 h of draw. Purification was achieved using the Ficoll-Paque method: PBMC cells were harvested by centrifugation at 1200×g for 5 minutes and washed three times by re-suspension in RBC lysis buffer (155 mM NH4Cl, 0.1 mM EDTA, 10 mM KHCO3). Washed cells were suspended in lysis buffer (0.2×10^9 cells in 1 ml of 10 mM Tris, pH 7.4, 150 mM NaCl, 20 mM CaCl2, 1 mM DTT and 1% NP40) and incubated on ice for 20 minutes. The PBMC crude extract was centrifuged at 1000×g for 30 min to remove unlysed cells and the supernatant at 100,000×g for 1 h. The 100,000×g supernatant (PBMC Extract: P0) was harvested, snap frozen in liquid nitrogen and stored at −70° C.
Reaction mixtures contained 25 mM MesNa (pH 6.5), 100 mM NaCl, 1 mM DTT, 0.1% NP-40, 30 μM substrate, and varying amounts of enzyme in a final volume of 100 μl. The enzymatic reaction is performed at 37° C. for 10-120 minutes and stopped at 3-4 individual time points by adding 180 μl of ice cold methanol. Samples are incubated @−20° C. for 30 min, and centrifuged 13,000 RPM for 30 min (@ 4° C.). The supernatant is transferred to a 96 well plate and evaporated under vacuum using a speedvac. The precipitate is dissolved in 100 μl of 20 mM CH3COONH4+5% AcCN. The disappearance of pro-drug is measured by HPLC, monitoring at 260 nm. The specific activity of the PBMC Extract against the prodrugs tested is defined as: v (cleavage rate)/μg protein=pmoles/min/μg.

| SMILES | Human PBMC extract specific activity |
| --- | --- |
| CCOC(=O)C(C)NP(=O)(CCC(C)(C)CCn1cnc2c(=O)[nH]c(N)nc21)Oc1ccccc1 (stereo not shown) [Example 130-1] | 3.48 pmol/min/µg |
| CCOC(=O)C(C)NP(=O)(CCC(C)(C)CCn1cnc2c(=O)[nH]c(N)nc21)N[C@@H](C)C(=O)OCC (stereo partly shown) [Example 130-2] | 0.65 pmol/min/µg |
| CCOC(=O)C(C)NP(=O)(/C=C/c1ccccc1Cn1cnc2c(=O)[nH]c(N)nc21)N[C@@H](C)C(=O)OCC (stereo partly shown) [Example 133-2] | 0.38 pmol/min/µg |
| CCOC(=O)C(C)NP(=O)(/C=C/c1ccccc1Cn1cnc2c(=O)[nH]c(N)nc21)Oc1ccccc1 (stereo not shown) [Example 133-1] | 4.9 pmol/min/µg |
